The text below walks through data of patent US10894777B2, “TG2 inhibitor piperazine compounds and uses thereof” (UNIVERSITY OF OTTAWA, priority 2016, dated 2021).

What all share (format): cell-based, human
In assay [1] the test system is A431 cells. In words: Matrigel invasion assay, A431 cells. As for the experimental part:
In (A), it is shown that A431-derived ECS cells have elevated TG2 and mesenchymal markers. A431 cells (40,000 cells/well) were grown in spheroid media in monolayer conditions or as non-attached spheroids (ECS cells) for 10 d. Cells were harvested and lysates prepared for immunoblot. In (B), A431 cells were electroporated with 3 μg of control- or TG2-siRNA and at 72 h extracts were prepared to assay TG2 and EMT marker level. In (C), A431-derived ECS cells were electroporated with 3 μg of the indicated siRNA and then grown as spheroids for 96 h. […] In (D), A431 cells (500,000 cells/well) were plated in monolayer culture in spheroid media in 100 mm dishes. […] Confluent monolayers were then scratched with a 10-μL pipette tip, rinsed, and width of the wound was monitored for 0-14 h.
In (A), A431 cells were grown as monolayers or in ultralow attachment plates (spheroids) in spheroid medium. […] Spheroid number was counted on days 1, 2 and 3. […] Spheroid number and trypan-blue viable cell number were determined at the indicated times following NC9 addition. […] A wound was created and ability of the cells to close the wound was monitored with time. […]
Invasion assay. […] The membrane was fixed in 4% paraformaldehyde, stained with 1 μg/m DAPI, and the underside of the membrane was photographed with an inverted fluorescent microscope and the number of cells counted.

Assay [2] deals with SCC-13 cells. The experiment in a line: EMT marker immunoblot, SCC-13 cells. The settings on record: 20 μM, 48 h. As for the experimental part:
In (A), SCC-13 cells (500,000) were plated in monolayer culture in spheroid medium in 100 mm dishes. Fresh spheroid medium containing 0 or 20 μM NC9 was added at time zero and again at 24 h. After 48 h lysates were collected for electrophoresis and immunoblot. In (B), SCC-13 cells were pretreated with 0 or 20 μM NC9 for 2 h and then harvested and plated (25,000 cells) in the upper chamber in 1 mL of medium, above a matrigel-coated membrane, in a Millicell chamber. After 30 h. the inside of membrane was harvested and the nuclei of migrated cells on the bottom of the membrane were counted using an inverted fluorescent microscope. The values are mean±SEM, n=3 (p, 0.05). In (C), SCC-13 (2 million) cells were plated in spheroid medium in 100 mm dishes and grown as monolayer cultures. Confluent monolayers were then scratched with a 10-μL pipette tip and wound width was monitored for 0-18 h.
Immunoblot. […] Blots were rinsed and then incubated with secondary antibody (diluted 1:5000) for 2 h. Secondary antibody binding was visualized using ECL Prime chemiluminescence detection technology (Amersham).

The subject of assay [3] is A431 cells. The experiment in a line: EMT marker immunoblot, A431 cells. The settings on record: 20 μM, 48 h. As for the experimental part: In (A), it is shown that A431-derived ECS cells have elevated TG2 and mesenchymal markers. A431 cells (40,000 cells/well) were grown in spheroid media in monolayer conditions or as non-attached spheroids (ECS cells) for 10 d. Cells were harvested and lysates prepared for immunoblot. In (B), A431 cells were electroporated with 3 μg of control- or TG2-siRNA and at 72 h extracts were prepared to assay TG2 and EMT marker level. In (C), A431-derived ECS cells were electroporated with 3 μg of the indicated siRNA and then grown as spheroids for 96 h. […] In (D), A431 cells (500,000 cells/well) were plated in monolayer culture in spheroid media in 100 mm dishes. The following day, at time zero, 0 or 20 μM NC9 was added with fresh addition of medium and NC9 at 24 h. At 48 h the cells were harvested and extracts prepared for immunoblot. In (E), A431 cells were pretreated in 0 or 20 μM NC9 for 2 h and then harvested and 25,000 cells were seeded in the upper chamber above a matrigel-coated membrane in 1 mL of growth medium containing 1% FCS in a Millicell chamber. The lower chamber was filled with growth medium containing 10% FCS. […] Confluent monolayers were then scratched with a 10-μL pipette tip, rinsed, and width of the wound was monitored for 0-14 h. […]

Regarding `C=CC(=O)NCCCC[C@H](NC(=O)OCc1ccccc1)C(=O)NCCOCCOCCNS(=O)(=O)c1cccc2c(N(C)C)cccc12` [NC9], the “reduction of ability of A431 ECS cells to invade Matrigel” value in assay [1] (20 μM 1 hour, 24 hours) is recorded as 50%. The matrigel invasion result in assay [1] (20 μM pretreatment 2 h, 30 h) is “reduced matrigel invasion”. In assay [2], the E-cadherin level result is listed as “elevated”; the “EMT transcription factor and EMT marker levels” value is “reduced EMT transcription factor (Twist, Snail, Slug) and EMT marker (vimentin, fibronectin, N-cadherin, HIF-1α) levels”. Besides, the EMT markers expression result in assay [3] is listed as “reduction in EMT markers expression”.
